According to patent publication US10668047B2, “Aziridine containing DNA alkylating agents” (priority 2015, dated 2020):
Read-outs that look alike come from different tables or passages of the source.

Key:
[1] = system: H460 non-cell lung cancer human tumor cell line; assay: In vitro human tumor cell line cytotoxicity (proliferation) assay, AlamarBlue; assay type: cell-based
Procedure, shortened: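 H460 cells (4×10^3/well) attached for 24 h, then were exposed to compound for 2 hours at 37° C. before washout and 70 hrs further growth in fresh medium. Viable cells were measured by AlamarBlue, and IC50 (50% growth inhibition) was determined relative to media-only control.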

[2] = MTD determination, administered daily for 5 days (preliminary studies for the H460 xenograft model); assay type: in vivo, nude mice (nu/nu); conditions: on the basis of weight loss and behavioral signs, female nude mice
Procedure: On the basis of the favorable in vitro data for these compounds, their anti-tumor activities in the H460 (NSCLC) human tumor xenograft model were evaluated. H460 cells (lx 10^6) were subcutaneously implanted in the flanks of pathogen-free homozygous female nude mice (nu/nu, Charles River Laboratories). When tumor size reached 100-150 mm^3, animals were randomized to 10 mice per treatment group. All tested compounds were formulated in 5% DMSO, 5% Tween 80 in D5W. The doses of all the compounds were chosen on the basis of preliminary studies to define the MTD of each compound when administered daily for 5 days. On the basis of weight loss and behavioral signs, the MTDs of TH2565 and TH2566 were determined to be 2 mg/kg, respectively. The comparative tumor volume reductions for certain compounds are graphically illustrated in FIGS. 1A-1C.

[3] = Homo sapiens, NCI-H460, read-out: IC50 (N2), H460 cells, under nitrogen, 2 hrs exposure, wash, then 70 hrs growth
[4] = Homo sapiens, NCI-H460, read-out: IC50 (air), H460 cells, under air, 2 hrs exposure, wash, then 70 hrs growth
[5] = Homo sapiens, NCI-H460, H460 cells, under air, 2 hrs exposure, wash, then 70 hrs growth, read-out: IC50 (air)
[6] = Homo sapiens, NCI-H460, H460 cells, under nitrogen, 2 hrs exposure, wash, then 70 hrs growth, read-out: IC50 (N2)
[7] = H460 cells, under air, 2 hrs exposure, wash, then 70 hrs growth, read-out: IC50 (air)
[8] = H460 cells, under nitrogen, 2 hrs exposure, wash, then 70 hrs growth, read-out: IC50 (N2)

Compound `CC(OP(=O)(N1CC1)N1CC1)c1ccc([N+](=O)[O-])cc1` (single isomer, unassigned) [compound 2565] has an IC50 [1, 3] of 100 nM, an IC50 [1, 4] of 18000 nM and an MTD at 5 days ([2]; nude (nu/nu), mouse, in vivo) of 2 mg/kg.

`CC(OP(=O)(N1CC1)N1CC1)c1ccc([N+](=O)[O-])cc1` (single isomer, unassigned) [compound 2566] showed an IC50 ([1]; read-out: IC50 (N2), H460 cells, under nitrogen, 2 hrs exposure, wash, then 70 hrs growth) of 100 nM, an IC50 ([1]; read-out: IC50 (air), H460 cells, under air, 2 hrs exposure, wash, then 70 hrs growth) of 23000 nM and an MTD [2] of 2 mg/kg.

`CC(OP(=O)(N1CC1)N1CC1)c1ccc([N+](=O)[O-])c(-n2ccnc2Cl)c1` (stereo not drawn) [compound 2765] showed an IC50 [1, 5] of 8100 nM and an IC50 [1, 6] of 30 nM.

With `CC(OP(=O)(N1CC1)N1CC1)c1ccc([N+](=O)[O-])c(-n2ccnc2-c2ccccc2)c1` (stereo not drawn) [compound 2766] the IC50 [1, 5] was 4800 nM and the IC50 [1, 6] was 700 nM.

Compound `CC(OP(=O)(N1CC1)N1CC1)c1ccc([N+](=O)[O-])c(-n2ncc3ccccc32)c1` (stereo not drawn) [compound 2767] has an IC50 [1, 5] of 2300 nM and an IC50 [1, 6] of 200 nM.

`CC(OP(=O)(N1CC1)N1CC1)c1ccc([N+](=O)[O-])c(-n2nccn2)c1` (stereo not drawn) [compound 2771] gave an IC50 [1, 5] of 14000 nM and an IC50 [1, 6] of 30 nM.

`CC(OP(=O)(N1CC1)N1CC1)c1ccc([N+](=O)[O-])c(-n2ccnn2)c1` (stereo not drawn) [compound 2772] gave an IC50 [1, 5] of 26000 nM and an IC50 [1, 6] of 50 nM.

With `CC(OP(=O)(N1CC1)N1CC1)c1ccc([N+](=O)[O-])c(Br)c1` (stereo not drawn) [compound 2773] the IC50 [1, 5] was 16000 nM and the IC50 [1, 6] was 700 nM.

`CC(OP(=O)(N1CC1)N1CC1)c1ccc([N+](=O)[O-])c(-c2ccc(C(F)(F)F)cc2)c1` (stereo not drawn) [compound 2774] gave an IC50 [1, 5] of 3500 nM and an IC50 [1, 6] of 800 nM.

`CC(OP(=O)(N1CC1)N1CC1)c1ccc([N+](=O)[O-])c(-c2ccc(C#N)cc2)c1` (stereo not drawn) [compound 2775] showed an IC50 [1, 5] of 2500 nM and an IC50 [1, 6] of 300 nM.

In the case of `C=Cc1cc(C(C)OP(=O)(N2CC2)N2CC2)ccc1[N+](=O)[O-]` (stereo not drawn) [compound 2776], the IC50 [1, 5] is reported as 2500 nM and the IC50 [1, 6] is reported as 400 nM.

Compound `CC(OP(=O)(N1CC1)N1CC1)c1ccc([N+](=O)[O-])c(-n2nnc3ccccc32)c1` (stereo not drawn) [compound 2777] has an IC50 [1, 5] of 3400 nM and an IC50 [1, 6] of 10 nM.

Work on `CC(OP(=O)(N1CC1)N1CC1)c1ccc([N+](=O)[O-])c(-c2ccco2)c1` (stereo not drawn) [compound 2782] yielded an IC50 [1, 5] of 41000 nM and an IC50 [1, 6] of 1700 nM.

For `CC(OP(=O)(N1CC1)N1CC1)c1ccc([N+](=O)[O-])c(-c2cccs2)c1` (stereo not drawn) [compound 2783], the IC50 [1, 5] was 51000 nM and the IC50 [1, 6] was 1700 nM.

`CC(OP(=O)(N1CC1)N1CC1)c1ccc([N+](=O)[O-])c(-c2ccccc2)c1` (stereo not drawn) [compound 2785] showed an IC50 [1, 5] of 47000 nM and an IC50 [1, 6] of 1600 nM.

For `CC(OP(=O)(N1CC1)N1CC1)c1ccc([N+](=O)[O-])c(-c2ccccc2F)c1` (stereo not drawn) [compound 2786], the IC50 [1, 5] was 69000 nM and the IC50 [1, 6] was 2500 nM.

With `CC(OP(=O)(N1CC1)N1CC1)c1cc(-n2nnc3ccccc32)c([N+](=O)[O-])cc1F` (stereo not drawn) [compound 2787] the IC50 [1, 5] was 2300 nM and the IC50 [1, 6] was 20 nM.

`CC(OP(=O)(N1CC1)N1CC1)c1ccc([N+](=O)[O-])c(-c2ccc(F)cc2)c1` (stereo not drawn) [compound 2788] gave an IC50 [1, 5] of 22000 nM and an IC50 [1, 6] of 1300 nM.

Work on `Cc1ccc(-c2cc(C(C)OP(=O)(N3CC3)N3CC3)ccc2[N+](=O)[O-])cc1` (stereo not drawn) [compound 2789] yielded an IC50 [1, 5] of 36000 nM and an IC50 [1, 6] of 2400 nM.

In the case of `CC(OP(=O)(N1CC1)N1CC1)c1ccc([N+](=O)[O-])c(-c2ccc(-c3ccccc3)cc2)c1` (stereo not drawn) [compound 2790], the IC50 [1, 5] is reported as 4000 nM and the IC50 [1, 6] is reported as 1800 nM.

Compound `C#Cc1cc(C(C)OP(=O)(N2CC2)N2CC2)ccc1[N+](=O)[O-]` (stereo not drawn) [compound 2792] has an IC50 [1, 5] of 3700 nM and an IC50 [1, 6] of 200 nM.

With `CC(OP(=O)(N1CC1)N1CC1)c1ccc([N+](=O)[O-])c(-c2cn(COC(=O)C(C)(C)C)nn2)c1` (stereo not drawn) [compound 2793] the IC50 [1, 5] was 4000 nM and the IC50 [1, 6] was 400 nM.

In the case of `CC(OP(=O)(N1CC1)N1CC1)c1ccc([N+](=O)[O-])c(-n2c(N)nc3ccccc32)c1` (stereo not drawn) [compound 2798], the IC50 [1, 5] is reported as 32000 nM and the IC50 [1, 6] is reported as 600 nM.

`CC(OP(=O)(N1CC1)N1CC1)c1ccc([N+](=O)[O-])c(-c2ccccc2C(F)(F)F)c1` (stereo not drawn) [compound 2799] showed an IC50 [1, 5] of 37000 nM and an IC50 [1, 6] of 2300 nM.

Work on `Cc1ccccc1-c1cc(C(C)OP(=O)(N2CC2)N2CC2)ccc1[N+](=O)[O-]` (stereo not drawn) [compound 2800] yielded an IC50 [1, 5] of 30000 nM and an IC50 [1, 6] of 1300 nM.

Compound `CC(OP(=O)(N1CC1)N1CC1)c1ccc([N+](=O)[O-])c(-c2cccc(C#N)c2)c1` (stereo not drawn) [compound 2801] has an IC50 [1, 5] of 47000 nM and an IC50 [1, 6] of 2200 nM.

With `CC(OP(=O)(N1CC1)N1CC1)c1ccc([N+](=O)[O-])c(-c2cccc(C(F)(F)F)c2)c1` (stereo not drawn) [compound 2802] the IC50 [1, 5] was 22000 nM and the IC50 [1, 6] was 2800 nM.

`CC(OP(=O)(N1CC1)N1CC1)c1ccc([N+](=O)[O-])c(-n2ccnc2)c1` (stereo not drawn) [compound 2803] gave an IC50 [1, 7] of 150000 nM and an IC50 [1, 8] of 300 nM.

`CC(OP(=O)(N1CC1)N1CC1)c1ccc([N+](=O)[O-])c(-n2ccnc2)c1` (stereo not drawn) [compound 2804] gave an IC50 [1, 7] of 310000 nM and an IC50 [1, 8] of 600 nM.

With `CC(OP(=O)(N1CC1)N1CC1)c1ccc([N+](=O)[O-])c(-c2cn(-c3ccc(F)cc3)nn2)c1` (stereo not drawn) [compound 2806] the IC50 [1, 5] was 5400 nM and the IC50 [1, 6] was 300 nM.

`CC(OP(=O)(N1CC1)N1CC1)c1ccc([N+](=O)[O-])c(-n2ccnc2Br)c1` (stereo not drawn) [compound 2807] showed an IC50 [1, 5] of 13000 nM and an IC50 [1, 6] of 30 nM.

In the case of `CC(OP(=O)(N1CC1)N1CC1)c1ccc([N+](=O)[O-])c(C[N+](=O)[O-])c1` (stereo not drawn) [compound 2811], the IC50 [1, 3] is reported as 100 nM and the IC50 [1, 4] is reported as 8400 nM.

With `CC(OP(=O)(N1CC1)N1CC1)c1ccc([N+](=O)[O-])c(C(F)F)c1` (stereo not drawn) [compound 2821] the IC50 [1, 5] was 5000 nM and the IC50 [1, 6] was 50 nM.

`CC(OP(=O)(N1CC1)N1CC1)c1ccc([N+](=O)[O-])c(CF)c1` (stereo not drawn) [compound 2822] gave an IC50 [1, 5] of 3100 nM and an IC50 [1, 6] of 300 nM.

For `CC(OP(=O)(N1CC1)N1CC1)c1ccc([N+](=O)[O-])c2ccccc12` (stereo not drawn) [compound 2824], the IC50 [1, 5] was 1700 nM and the IC50 [1, 6] was 20 nM.
